# Source: US20260285850A1, “SUBSTITUTED OXAZOLIDINONES AND IMIDAZOLINONES AS HERBICIDES” (FMC CORPORATION, priority 2023, published 2026)
# Legend:
# Format in all cases: in vivo
# [1] = tested on: barnyardgrass (Echinochloa crus-galli); test: Test A preemergence soil spray, visual injury rating 0-100; details: 10 days
# Outline: (§1)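 Plants were grown in a loam soil-sand blend and treated with test chemical in a non-phytotoxic solvent mixture containing surfactant, either sprayed on soil preemergence or applied postemergence to 2-10 cm plants. After 10 days in a greenhouse, injury was scored visually against untreated controls, 0 meaning no effect and 100 complete control.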
# [2] = tested on: blackgrass (Alopecurus myosuroides); test: as above; details: 10 days
# Outline: as §1
# [3] = tested on: corn (Zea mays); test: as above; details: 10 days
# Outline: as §1
# [4] = tested on: green foxtail (Setaria viridis); test: as above; details: 10 days
# Outline: as §1
# [5] = tested on: kochia (Bassia scoparia); test: as above; details: 10 days
# Outline: as §1
# [6] = tested on: oat, wild (wild oat, Avena fatua); test: as above; details: 10 days
# Outline: as §1
# [7] = tested on: palmer (palmer amaranth, palmer pigweed, Amaranthus palmeri); test: as above; details: 10 days
# Outline: as §1
# [8] = tested on: ragweed (common ragweed, Ambrosia artemisiifolia); test: as above; details: 10 days
# Outline: as §1
# [9] = tested on: ryegrass, Italian (italian ryegrass, Lolium multiflorum); test: as above; details: 10 days
# Outline: as §1
# [10] = tested on: soybean (Glycine max); test: as above; details: 10 days
# Outline: as §1
# [11] = tested on: wheat (Triticum aestivum); test: as above; details: 10 days
# Outline: as §1
# [12] = tested on: barnyardgrass (Echinochloa crus-galli); test: Test A postemergence application, visual injury rating 0-100
# Outline: as §1
# [13] = tested on: blackgrass (Alopecurus myosuroides); test: as above
# Outline: as §1
# [14] = tested on: corn (Zea mays); test: as above
# Outline: as §1
# [15] = tested on: galium (catchweed bedstraw, Galium aparine); test: as above
# Outline: as §1
# [16] = tested on: green foxtail (Setaria viridis); test: as above
# Outline: as §1
# [17] = tested on: horseweed (Erigeron canadensis); test: as above
# Outline: as §1
# [18] = tested on: kochia (Bassia scoparia); test: as above
# Outline: as §1
# [19] = tested on: oat, wild (wild oat, Avena fatua); test: as above
# Outline: as §1
# [20] = tested on: palmer (palmer amaranth, palmer pigweed, Amaranthus palmeri); test: as above
# Outline: as §1
# [21] = tested on: ragweed (common ragweed, Ambrosia artemisiifolia); test: as above
# Outline: as §1
# [22] = tested on: ryegrass, Italian (italian ryegrass, Lolium multiflorum); test: as above
# Outline: as §1
# [23] = tested on: soybean (Glycine max); test: as above
# Outline: as §1
# [24] = tested on: wheat (Triticum aestivum); test: as above
# Outline: as §1
# [25] = tested on: barnyardgrass (Echinochloa crusgalli); test: Test B flooded paddy test, visual plant response rating 0-100; details: 250 g ai/ha, Flood, applied to paddy water, evaluated after 13 days
# Outline: (§2)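 Paddy-water application: test compounds went directly into water flooded 3 cm above the soil surface, with plants at 2 leaves. After a 13-day greenhouse period, responses were judged by eye relative to controls; a dash marks an untested entry.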
# [26] = tested on: ducksalad (Heteranthera limosa); test: as above; details: 250 g ai/ha, Flood, applied to paddy water, evaluated after 13 days
# Outline: as §2
# [27] = tested on: rice (Oryza sativa); test: as above; details: 250 g ai/ha, Flood, applied to paddy water, evaluated after 13 days
# Outline: as §2
# [28] = tested on: sedge, umbrella (small-flower umbrella sedge, Cyperus difformis); test: as above; details: 250 g ai/ha, Flood, applied to paddy water, evaluated after 13 days
# Outline: as §2
# [29] = 62 g ai/ha, 0 = no effect, 100 = complete control
# [30] = 62 g ai/ha, postemergence, 10 days, 0 = no effect, 100 = complete control
# [31] = Postemergence, 16 g ai/ha, greenhouse 10 days, 0 no effect, 100 complete control
compound,measurement,setting,value
CC(C)OC(=O)C1=CCC(NC(=O)C2(C)CN(c3cc(F)cc(F)c3)C(=O)O2)C1 (stereo not shown) [Compound 100],Barnyardgrass plant response rating,"[1]; 16 g ai/ha, 0 to 100 scale",30
same,Barnyardgrass plant response rating (0-100),[1]; [29],100
same,Blackgrass plant response rating,"[2]; 16 g ai/ha, 0 to 100 scale",0
same,Blackgrass plant response rating (0-100),[2]; [29],60
same,Corn plant response rating,"[3]; 16 g ai/ha, 0 to 100 scale",30
same,Corn plant response rating (0-100),[3]; [29],30
same,"Foxtail, Green plant response rating","[4]; 16 g ai/ha, 0 to 100 scale",80
same,"Foxtail, Green plant response rating (0-100)",[4]; [29],100
same,Kochia plant response rating,"[5]; 16 g ai/ha, 0 to 100 scale",0
same,Kochia plant response rating (0-100),[5]; [29],100
same,"Oat, Wild plant response rating","[6]; 16 g ai/ha, 0 to 100 scale",0
same,"Oat, Wild plant response rating (0-100)",[6]; [29],0
same,"Pigweed, Palmer plant response rating","[7]; 16 g ai/ha, 0 to 100 scale",90
same,"Pigweed, Palmer plant response rating (0-100)",[7]; [29],100
same,Ragweed plant response rating,"[8]; 16 g ai/ha, 0 to 100 scale",0
same,Ragweed plant response rating (0-100),[8]; [29],0
same,"Ryegrass, Italian plant response rating","[9]; 16 g ai/ha, 0 to 100 scale",60
same,"Ryegrass, Italian plant response rating (0-100)",[9]; [29],80
same,Soybean plant response rating,"[10]; 16 g ai/ha, 0 to 100 scale",0
same,Soybean plant response rating (0-100),[10]; [29],40
same,Wheat plant response rating,"[11]; 16 g ai/ha, 0 to 100 scale",50
same,Wheat plant response rating (0-100),[11]; [29],90
same,Barnyardgrass plant response rating (0-100),[12]; [30],100
same,Barnyardgrass plant response rating (0 to 100 scale),[12]; [31],50
same,Blackgrass plant response rating (0-100),[13]; [30],90
same,Blackgrass plant response rating (0 to 100 scale),[13]; [31],60
same,Corn plant response rating (0-100),[14]; [30],100
same,Corn plant response rating (0 to 100 scale),[14]; [31],100
same,Galium plant response rating (0-100),[15]; [30],90
same,Galium plant response rating (0 to 100 scale),[15]; [31],70
same,"Foxtail, Green plant response rating (0-100)",[16]; [30],90
same,"Foxtail, Green plant response rating (0 to 100 scale)",[16]; [31],80
same,Horseweed plant response rating (0-100),[17]; [30],40
same,Horseweed plant response rating (0 to 100 scale),[17]; [31],0
same,Kochia plant response rating (0-100),[18]; [30],90
same,Kochia plant response rating (0 to 100 scale),[18]; [31],80
same,"Oat, Wild plant response rating (0-100)",[19]; [30],100
same,"Oat, Wild plant response rating (0 to 100 scale)",[19]; [31],70
same,"Pigweed, Palmer plant response rating (0-100)",[20]; [30],80
same,"Pigweed, Palmer plant response rating (0 to 100 scale)",[20]; [31],20
same,Ragweed plant response rating (0-100),[21]; [30],40
same,Ragweed plant response rating (0 to 100 scale),[21]; [31],0
same,"Ryegrass, Italian plant response rating (0-100)",[22]; [30],90
same,"Ryegrass, Italian plant response rating (0 to 100 scale)",[22]; [31],70
same,Soybean plant response rating (0-100),[23]; [30],70
same,Soybean plant response rating (0 to 100 scale),[23]; [31],60
same,Wheat plant response rating (0-100),[24]; [30],80
same,Wheat plant response rating (0 to 100 scale),[24]; [31],70
same,"Plant response rating, Barnyardgrass (0 to 100 scale, 0 is no effect and 100 is complete control)",[25],70
same,"Plant response rating, Ducksalad (0 to 100 scale, 0 is no effect and 100 is complete control)",[26],75
same,"Plant response rating, Rice (0 to 100 scale, 0 is no effect and 100 is complete control)",[27],70
same,"Plant response rating, Sedge, Umbrella (0 to 100 scale, 0 is no effect and 100 is complete control)",[28],95
